Source: patent US7182950B2, “Nano-sized self-assembled liquid dilutable vehicles” (Nutralease Ltd., priority 2002, dated 2007)

How the values were obtained:
[1] = assay type: physicochemical
Text: The invention will now be described with reference to some non-limiting specific embodiments. The invention will first be illustrated in reference to the attached drawings to be followed by a more detailed description below. Turning to FIG. 1, there are shown two different phase diagrams (1A and 1B) of ternary systems comprising oil/water/surfactant according to the prior art. Such a ternary system forms microemulsions. As a function of the relative amounts of each of the three components one may achieve a two-phase or a mono-phase liquid concentrate comprising of the microemulsion where the boundaries of the stable phases depend on the relative concentration of each component. […] A two-phase region at equilibrium, at 35, prevails at all other concentrations of the ternary system. […] A one phase stable isotropic region exists at 65. Turning to FIG. 2, a general ternary phase diagram 80 describing the nano-sized self-assembled structured concentrates of the present invention, A rather small two-phase concentrate region 90 and a large stable one-phase at 100 region are present. A micellar concentrate of the nano-sized self-assembled structures exists at 110, i.e. there is no aqueous phase. Adding a small amount of aqueous phase results in an oil continuous phase, which is actually water in oil (W/O) region at 120A, 120B and 120C along the tree dilution lines. Addition of an increasing amount of aqueous solution results in a bi-continuous region at 130A, 130B and 130C along the three dilution lines. At the point where the amount of aqueous solution is greater than that of the oil phase there exists an aqueous continuous phase, which is actually an oil in water (O/W) region generally at 140A, 140B and 140C along the three dilution lines. Direct micelles exist only at the extreme at 150. It should be noted that along each concentration line as the concentration of the surfactant increases, the oil continuous phase may decrease is size while the bicontinuous and water continuous phases may increase in size. Turning to FIG. 3, a ternary phase diagram 170 describing another nanosized-structured concentrate of the present invention is shown. The oil phase, which is the desired solvent for achieving a single-phase system, is α-tocopherol acetate. The aqueous system comprises of water and a co-solvent—propylene glycol. As shown, a major portion of the four-component system is in one stable region 180, while only a minor portion 190 is a two-phase system. Phase diagrams, solubilization factors and efficiency of solubilization for lycopene, phytosterol and lutein in ternary systems according to lo the present invention are given in FIGS. 4–6. […] It should be noted that the ratio between each of the components of the oil phase to the surfactant is 1:3. […] As shown, upon further dilution with water, tie solubilization of lycopene drops over the dilution factor. In case the system is diluted from 67% water to 80% water, the dilution factor (from inversion) is 80/67=1.19. The solubilization on the other hand decreases by a factor of 450/312.5=1.44. This indicates structural change in the nano-sized self-assembled concentrates. Turning to FIG. 4C, the efficiency of the solubilization in the described system is represented (α). The efficiency factor, α, is defined as lycopene/oil(wt/wt)X 100. As shown, the maximum solubilization on an oil base is 0.8 wt %. […] Tuming to FIG. 4D, there is shown the solubilization capacity of the lycopene as a function of the nature of the surfactant system. As shown, for the case where the surfactant is Tween 60, the efficiency factor (solubilization based on the oil phase) is 0.8 wt %. However, this value is increased to 1.05, 1.1, 1.1 and 1.16 (wt %) for the cases where the surfactant is ethoxylated monoglycerides (EM), triglycerol monooleate (TM), sugar ester (SE), and a mixture of SE+EM, respectively. It should be noted that such efficiency factors are equivalent to a solubilization factor of up to 25 fold. […]

[2] = Solubility of lycopene in oil (oil dissolution capacity); assay type: physicochemical
Text: The invention will now be described with reference to some non-limiting specific embodiments. The invention will first be illustrated in reference to the attached drawings to be followed by a more detailed description below. Turning to FIG. 1, there are shown two different phase diagrams (1A and 1B) of ternary systems comprising oil/water/surfactant according to the prior art. Such a ternary system forms microemulsions. As a function of the relative amounts of each of the three components one may achieve a two-phase or a mono-phase liquid concentrate comprising of the microemulsion where the boundaries of the stable phases depend on the relative concentration of each component. […] A two-phase region at equilibrium, at 35, prevails at all other concentrations of the ternary system. […] A one phase stable isotropic region exists at 65. Turning to FIG. 2, a general ternary phase diagram 80 describing the nano-sized self-assembled structured concentrates of the present invention, A rather small two-phase concentrate region 90 and a large stable one-phase at 100 region are present. A micellar concentrate of the nano-sized self-assembled structures exists at 110, i.e. there is no aqueous phase. Adding a small amount of aqueous phase results in an oil continuous phase, which is actually water in oil (W/O) region at 120A, 120B and 120C along the tree dilution lines. […]

For `CC1=C[C@H](O)CC(C)(C)[C@H]1/C=C/C(C)=C/C=C/C(C)=C/C=C/C=C(C)/C=C/C=C(C)/C=C/C1=C(C)C[C@@H](O)CC1(C)C` [free lutein], the “Concentration (%) of free lutein” value [1] was 0.006%.
With `CC1=C[C@H](O)CC(C)(C)[C@H]1/C=C/C(C)=C/C=C/C(C)=C/C=C/C=C(C)/C=C/C=C(C)/C=C/C1=C(C)C[C@@H](O)CC1(C)C` [lutein] the “Aqueous solution concentration at which maximum solubilization occurs (bi continuous region)” value [1] was 40 to 60%, the “Increase of solubilization capacity over aqueous or oil phase alone or with surfactant” value (“Increase of solubilization capacity” below) [1] was 7-20 fold and the “Solubilization in the oil in water (O/W) region” value [1] was “limited solubilization”.
With lutein ester the “Concentration (%) of lutein ester” value [1] was 0.047%.
For `CC(C)=CCC/C(C)=C/C=C/C(C)=C/C=C/C(C)=C/C=C/C=C(C)/C=C/C=C(C)/C=C/C=C(\C)CCC=C(C)C` [lycopene], the “Solubility of lycopene in oil” value [2] was “ca. 0.045 wt %”, the “Concentration (%) of lycopene” value [1] was 0.02% and the “Efficiency factor α, lycopene/oil (wt/wt) x 100, maximum solubilization on an oil base” value [1] was 0.8 wt %. For the same compound, the “Factor of decrease of solubilization on dilution” value [1] was 1.44, the “Increase of solubilization capacity” value [1] was 7-20 fold and the “Maximum solubility (solubility capacity) in 1 Kg of nano-sized self-assembled structured concentrate” value [1] was 450 mg. For the same compound, the Maximum solubilization [1] was 0.45 % (wt), the “Solubility capacity in 1 Kg of concentrate after dilution” value [1] was 312.5 mg and the Solubilization factor [1] was “up to 25 fold”. The “Solubilization relative to the oil dissolution capacity” value [1] was “up to 17.7 fold”.
In the case of phytosterol, the “Concentration (%) of phytosterol” value [1] is reported as 1.0%, the “Efficiency factor α, phytosterol/oil (wt/wt) x 100, maximum solubilization on an oil base” value [1] is reported as 16.7 wt % and the “Increase of solubilization capacity” value [1] is reported as 7-20 fold. For the same compound, the Maximum solubilization [1] was 1.65 % (wt), the “Maximum solubilization in 1 Kg of nano-sized self-assembled structured concentrate” value [1] was 165 mg and the “Solubilization decrease factor on dilution” value [1] was 3.6. The Solubilization factors [1] was 6, 7 and the “Solubilization in 1 Kg of concentrate after dilution” value [1] was 45 mg.
